Measurements: patent publication US6355799B1, “Substituted benzene compounds, process for their preparation, and herbicidal and defoliant compositions containing them” (ISK Americas Incorporated, priority 1997, dated 2002)

Columns and labels:
Assay type in all cases: in vivo
[1] = tested on: upland rice (Oryza sp., var. Tebonnet, RICE); experiment: Post-emerge test, crop safety; conditions: post-emerge; for Post-emerge Herbicidal Activity RICE: crop damage rating 0-100 at 14 days after application; for Post-emerge Herbicidal Activity RICE (crop damage rating): 14 days after application, rating scale 0-100
Outline: (§1)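 Sandy loam pots; pre-emerge: sown 1 d pre-spray, surface-watered after, then bottom-watered. Post-emerge: sown 8–21 d before, 2–3 leaf stage, + 0.25% v/v NIS, bottom-watered. Acetone, 187 l/ha track spray, 15–1000 g ai/ha. 0–100 injury score, day 14.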

[2] = tested on: field corn (Zea mays L., var. Dekalb 535, CORN); experiment: Post-emerge test, crop safety; conditions: post-emerge; for Post-emerge Herbicidal Activity CORN: crop damage rating 0-100 at 14 days after application; for Post-emerge Herbicidal Activity CORN (crop damage rating): 14 days after application, rating scale 0-100
Outline: as §1

[3] = tested on: ivyleaf morningglory (Ipomoea hederacea, IPOHE); experiment: Post-emerge test, greenhouse herbicide activity screening; conditions: post-emerge; for Post-emerge Herbicidal Activity IPOHE: phytotoxicity rating 0-100 at 14 days after application; for Post-emerge Herbicidal Activity IPOHE (phytotoxicity rating): 14 days after application, rating scale 0-100
Outline: (§2)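 Compounds in acetone were track-sprayed at 187 l/ha, 15–1000 g ai/ha, onto sandy loam pots. Pre-emerge seeds were sown one day before spraying, with surface watering afterwards. Post-emerge plants were at the 2–3 leaf stage and sprayed with 0.25% v/v non-ionic surfactant. Injury was rated 0–100 at 14 days.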

[4] = tested on: velvetleaf (Abutilon theophrasti, ABUTH); experiment: as above; conditions: post-emerge; for Post-emerge Herbicidal Activity ABUTH: phytotoxicity rating 0-100 at 14 days after application; for Post-emerge Herbicidal Activity ABUTH (phytotoxicity rating): 14 days after application, rating scale 0-100
Outline: as §2

[5] = tested on: green foxtail (Setaria viridis, SETVI); experiment: as above; conditions: post-emerge; for Post-emerge Herbicidal Activity SETVI: phytotoxicity rating 0-100 at 14 days after application; for Post-emerge Herbicidal Activity SETVI (phytotoxicity rating): 14 days after application, rating scale 0-100
Outline: as §2

[6] = tested on: large crabgrass (Digitaria sanguinalis, DIGSA); experiment: as above; conditions: post-emerge; for Post-emerge Herbicidal Activity DIGSA: phytotoxicity rating 0-100 at 14 days after application; for Post-emerge Herbicidal Activity DIGSA (phytotoxicity rating): 14 days after application, rating scale 0-100
Outline: as §2

[7] = tested on: sicklepod (Cassia obtusifolia, CASOB); experiment: as above; conditions: post-emerge; for Post-emerge Herbicidal Activity CASOB: phytotoxicity rating 0-100 at 14 days after application; for Post-emerge Herbicidal Activity CASOB (phytotoxicity rating): 14 days after application, rating scale 0-100
Outline: as §2

[8] = tested on: redroot pigweed (Amaranthus retroflexus, AMARE); experiment: as above; conditions: post-emerge; for Post-emerge Herbicidal Activity AMARE: phytotoxicity rating 0-100 at 14 days after application; for Post-emerge Herbicidal Activity AMARE (phytotoxicity rating): 14 days after application
Outline: as §2

[9] = tested on: lambsquarters (Chenopodium album, CHEAL); experiment: as above; conditions: post-emerge; for Post-emerge Herbicidal Activity CHEAL: phytotoxicity rating 0-100 at 14 days after application; for Post-emerge Herbicidal Activity CHEAL (phytotoxicity rating): 14 days after application, rating scale 0-100
Outline: as §2

[10] = tested on: barnyardgrass (Echinochloa crus-galli, ECHCG); experiment: as above; conditions: post-emerge; for Post-emerge Herbicidal Activity ECHCG: phytotoxicity rating 0-100 at 14 days after application; for Post-emerge Herbicidal Activity ECHCG (phytotoxicity rating): 14 days after application, rating scale 0-100
Outline: as §2

[11] = tested on: johnsongrass (Sorghum halepense, SORHA); experiment: as above; conditions: post-emerge; for Post-emerge Herbicidal Activity SORHA: phytotoxicity rating 0-100 at 14 days after application; for Post-emerge Herbicidal Activity SORHA (phytotoxicity rating): 14 days after application, rating scale 0-100
Outline: as §2

[12] = 63 g ai/ha, rating scale 0-100 (0 no damage, 100 complete death)
[13] = 250 g ai/ha, rating scale 0-100

COc1c(Cl)cc(F)c(-n2c(=O)n3n(c2=O)CCCC3)c1NC(=O)c1ccc2ccccc2c1 [9-15]
10: Post-emerge Herbicidal Activity CORN ([2]; 250 g ai/ha) | Post-emerge Herbicidal Activity SETVI ([5]; 63 g ai/ha) | Post-emerge Herbicidal Activity ECHCG ([10]; 250 g ai/ha) | Post-emerge Herbicidal Activity SORHA ([11]; 250 g ai/ha)
40: Post-emerge Herbicidal Activity RICE ([1]; 63 g ai/ha)
35: Post-emerge Herbicidal Activity SETVI ([5]; 250 g ai/ha)
70: Post-emerge Herbicidal Activity RICE ([1]; 250 g ai/ha)
0: Post-emerge Herbicidal Activity DIGSA ([6]; 63 g ai/ha) | Post-emerge Herbicidal Activity ECHCG ([10]; 63 g ai/ha) | Post-emerge Herbicidal Activity SORHA ([11]; 63 g ai/ha)
100: Post-emerge Herbicidal Activity IPOHE ([3]; 63 g ai/ha) | Post-emerge Herbicidal Activity IPOHE ([3]; 250 g ai/ha) | Post-emerge Herbicidal Activity ABUTH ([4]; 63 g ai/ha) | Post-emerge Herbicidal Activity ABUTH ([4]; 250 g ai/ha) | Post-emerge Herbicidal Activity CASOB ([7]; 63 g ai/ha) | Post-emerge Herbicidal Activity CASOB ([7]; 250 g ai/ha) | Post-emerge Herbicidal Activity AMARE ([8]; 63 g ai/ha) | Post-emerge Herbicidal Activity AMARE ([8]; 250 g ai/ha) | Post-emerge Herbicidal Activity CHEAL ([9]; 63 g ai/ha) | Post-emerge Herbicidal Activity CHEAL ([9]; 250 g ai/ha)
20: Post-emerge Herbicidal Activity DIGSA ([6]; 250 g ai/ha)
5: Post-emerge Herbicidal Activity CORN ([2]; 63 g ai/ha)

Cn1c(C(F)(F)F)cc(=O)n(-c2c(O)cc(Cl)cc2Cl)c1=O [16-1]
20: Post-emerge Herbicidal Activity DIGSA (phytotoxicity rating) ([6]; 63 g ai/ha) | Post-emerge Herbicidal Activity SORHA (phytotoxicity rating) ([11]; 63 g ai/ha)
100: Post-emerge Herbicidal Activity ABUTH (phytotoxicity rating) ([4]; 250 g ai/ha)
10: Post-emerge Herbicidal Activity RICE (crop damage rating) ([1]; 250 g ai/ha)
80: Post-emerge Herbicidal Activity DIGSA (phytotoxicity rating) ([6]; 250 g ai/ha)
40: Post-emerge Herbicidal Activity SORHA (phytotoxicity rating) ([11]; 250 g ai/ha)
0: Post-emerge Herbicidal Activity RICE (crop damage rating) ([1]; 63 g ai/ha) | Post-emerge Herbicidal Activity CORN (crop damage rating) ([2]; 63 g ai/ha) | Post-emerge Herbicidal Activity CORN (crop damage rating) ([2]; 250 g ai/ha) | Post-emerge Herbicidal Activity SETVI (phytotoxicity rating) ([5]; 63 g ai/ha) | Post-emerge Herbicidal Activity SETVI (phytotoxicity rating) ([5]; 250 g ai/ha) | Post-emerge Herbicidal Activity CASOB (phytotoxicity rating) ([7]; 63 g ai/ha) | Post-emerge Herbicidal Activity CASOB (phytotoxicity rating) ([7]; 250 g ai/ha) | Post-emerge Herbicidal Activity CHEAL (phytotoxicity rating) ([9]; 63 g ai/ha) | Post-emerge Herbicidal Activity ECHCG (phytotoxicity rating) ([10]; 63 g ai/ha) | Post-emerge Herbicidal Activity ECHCG (phytotoxicity rating) ([10]; 250 g ai/ha)
70: Post-emerge Herbicidal Activity IPOHE (phytotoxicity rating) ([3]; 250 g ai/ha) | Post-emerge Herbicidal Activity ABUTH (phytotoxicity rating) ([4]; 63 g ai/ha) | Post-emerge Herbicidal Activity AMARE (phytotoxicity rating) [8, 12] | Post-emerge Herbicidal Activity AMARE (phytotoxicity rating) [8, 13] | Post-emerge Herbicidal Activity CHEAL (phytotoxicity rating) ([9]; 250 g ai/ha)
30: Post-emerge Herbicidal Activity IPOHE (phytotoxicity rating) ([3]; 63 g ai/ha)

Cn1c(C(F)(F)F)cc(=O)n(-c2c(Cl)cc(Cl)cc2OC(=O)c2ccc(F)cc2F)c1=O [16-4]
0: Post-emerge Herbicidal Activity RICE (crop damage rating) ([1]; 63 g ai/ha) | Post-emerge Herbicidal Activity RICE (crop damage rating) ([1]; 250 g ai/ha) | Post-emerge Herbicidal Activity CORN (crop damage rating) ([2]; 63 g ai/ha) | Post-emerge Herbicidal Activity CORN (crop damage rating) ([2]; 250 g ai/ha) | Post-emerge Herbicidal Activity IPOHE (phytotoxicity rating) ([3]; 63 g ai/ha) | Post-emerge Herbicidal Activity IPOHE (phytotoxicity rating) ([3]; 250 g ai/ha) | Post-emerge Herbicidal Activity ABUTH (phytotoxicity rating) ([4]; 63 g ai/ha) | Post-emerge Herbicidal Activity ABUTH (phytotoxicity rating) ([4]; 250 g ai/ha) | Post-emerge Herbicidal Activity SETVI (phytotoxicity rating) ([5]; 63 g ai/ha) | Post-emerge Herbicidal Activity SETVI (phytotoxicity rating) ([5]; 250 g ai/ha) | Post-emerge Herbicidal Activity DIGSA (phytotoxicity rating) ([6]; 63 g ai/ha) | Post-emerge Herbicidal Activity DIGSA (phytotoxicity rating) ([6]; 250 g ai/ha) | Post-emerge Herbicidal Activity CASOB (phytotoxicity rating) ([7]; 63 g ai/ha) | Post-emerge Herbicidal Activity CASOB (phytotoxicity rating) ([7]; 250 g ai/ha) | Post-emerge Herbicidal Activity AMARE (phytotoxicity rating) [8, 12] | Post-emerge Herbicidal Activity AMARE (phytotoxicity rating) [8, 13] | Post-emerge Herbicidal Activity CHEAL (phytotoxicity rating) ([9]; 63 g ai/ha) | Post-emerge Herbicidal Activity CHEAL (phytotoxicity rating) ([9]; 250 g ai/ha) | Post-emerge Herbicidal Activity ECHCG (phytotoxicity rating) ([10]; 63 g ai/ha) | Post-emerge Herbicidal Activity ECHCG (phytotoxicity rating) ([10]; 250 g ai/ha) | Post-emerge Herbicidal Activity SORHA (phytotoxicity rating) ([11]; 63 g ai/ha) | Post-emerge Herbicidal Activity SORHA (phytotoxicity rating) ([11]; 250 g ai/ha)
